Data reported in US20070123488A1, “Pharmaceutical composition comprising a zinc-hyaluronate complex for the treatment of multiple sclerosis” (RICHTER GEDEON VEGYESZETI GYAR RT., priority 2003, published 2007).
“Also recorded” adds a separate entry of the source.

What was measured:
[1] = molecular target: matrix metalloproteinases, particularly the MMP-9 (Homo sapiens, UniProt P14780); settings: cited from earlier work
[2] = compared with the sodium-HA salt; cited from earlier work
[3] = test system: experimental autoimmune encephalomyelitis (EAE) provoked by myelin oligodendrocyte glycoprotein (MOG); test: CR EAE provoked by MOG in mice, s.c. treatment; assay type: in vivo; settings: for ASC (treatment from day 5 to day 22): HMW Zn-HA 10 mg/kg, ZnCl2 equivalent to 0.8 mg/kg Zn2+; for Effect on the EAE model (in words): mice
Description: The only adequate and widely used model available for purposes of preclinical investigations of multiple sclerosis is the experimental autoimmune encephalomyelitis (EAE) (Mokhatarian et al., Nature 309, 356-358. (1984); Raine et al., Lab. Invest. 31, 369-380. (1974)), an inflammatory disease of the central nervous system transmitted by CD4^+ T-lymphocytes. Although the clinical complexity of the model is moderate compared with the disease investigated, its use is unavoidable in a research aimed at MS. Preclinical tests of Copolymer-1 (Copaxone) and interferon beta-1 already approved for human treatment, as well as those of the new drugs under development were/are carried out using this model (Popovic et al., Ann. Neurol. 51, 215-223. (2001); Stanislaus et al., Neurosci. Lett. 333, 167-170. (2002)). […] That's why in our experiments CR EAE provoked by myelin oligodendrocyte glycoprotein (MOG) in mice has been studied (Amor et al., J. Immunol. 153, 4349-4356. (1994)). In the middle of the 1960s the effect of hyaluronan sodium salt was investigated by Romanian research workers on EAE model.
Next, the possible effect of the HMW Zn-HA (10 mg/kg in 200 μl of physiological saline, subcutane) on the time of appearance of clinical symptoms has been investigated.
Tests were carried out on groups of mice (n=6-10 mice/group) using two types of treatment: (i) prophylactic, wherein administration happens from day 5 to day 22 after inoculation of MOG, or in a single case from day 9-10 to day 28 after that (marked with # in tables 2 and 3); and (ii) therapeutic treatment, wherein administration of the Zn-HA happened from day 13 to day 28 after the EAE had been induced (marked with * in tables 2 and 3).
The mice were given 10 mg/kg HMW Zn-HA s. c. daily and clinical data thereof were obtained from day 10 to day 28 and day 5 to day 22, respectively, after the EAE had been induced. The results were calculated from the average daily clinical data to give the average summed up clinical data (ASC).
In the studies summarized in Tables 1 to 4 each mouse used as EAE model received 200 μl s. c. injection each; the injection contained the active ingredient or the carrier (0.9% sodium chloride aqueous solution). To obtain the doses given in terms of mg/kg bodyweight above solutions of different concentration were prepared as follows: […]

EAE = settings: rabbits, intramuscularly; cited from earlier work

Sequence of matrix metalloproteinases, particularly the MMP-9 (P14780 94-707): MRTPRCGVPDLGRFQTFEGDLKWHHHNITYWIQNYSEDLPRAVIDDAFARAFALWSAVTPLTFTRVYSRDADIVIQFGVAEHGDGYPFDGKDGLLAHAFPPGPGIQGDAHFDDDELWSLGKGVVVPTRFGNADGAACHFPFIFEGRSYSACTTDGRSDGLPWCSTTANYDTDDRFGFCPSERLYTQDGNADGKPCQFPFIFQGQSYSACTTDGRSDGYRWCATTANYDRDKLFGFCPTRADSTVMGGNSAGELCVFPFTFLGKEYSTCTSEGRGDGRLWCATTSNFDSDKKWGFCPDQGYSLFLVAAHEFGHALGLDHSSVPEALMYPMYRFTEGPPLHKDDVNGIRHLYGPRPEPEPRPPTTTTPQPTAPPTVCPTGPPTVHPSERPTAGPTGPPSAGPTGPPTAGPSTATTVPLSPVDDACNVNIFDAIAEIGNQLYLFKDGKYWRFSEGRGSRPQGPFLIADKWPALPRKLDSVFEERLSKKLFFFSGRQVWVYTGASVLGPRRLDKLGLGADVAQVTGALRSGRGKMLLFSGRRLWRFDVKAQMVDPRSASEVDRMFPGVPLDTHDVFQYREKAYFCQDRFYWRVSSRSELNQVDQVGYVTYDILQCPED

Compound	Inhibitory effect on tissue damaging enzymes (matrix metalloproteinases, particularly the MMP-9) [1]	Antioxidant activity [2]	ASC (treatment from day 5 to day 22) [3]	Effect on the EAE model (in words) ([3]; listed as Na-HA)	Effect on the EAE model (in words) ([3]; listed as Na-HA salt)	Effect on the EAE model (in words) ([3]; listed as Na-hyaluronan)	Effect on development of EAE (in words) (EAE)	Effect on the EAE model (in words) [3]	Effect on the EAE model (in words) ([3]; listed as Zn^2+)
zinc-hyaluronan complex [zinc-HA]	inhibitory effect	increased antioxidant activity							
Na-hyaluronan [HMW Na-HA]	does not show the latter effect		14.2 ± 1.9	ineffective	ineffective; also recorded: did not show significant effect	didn't exert any influence	did not inhibit, but in certain cases did assist the development of EAE		
[Cl-].[Cl-].[Zn+2] [ZnCl2, zinc chloride]			14.2 ± 3.3					did not show significant effect	ineffective
